Values quoted from earlier work, collected in US8263630B2, “1,2,3-triazoles as 11-beta hydroxysteroid dehydrogenase type I inhibitors” (Bristol-Myers Squibb Company, priority 2008, dated 2012).

Target: T1, 11beta-HSD1 (Homo sapiens, UniProt P28845)
T1 construct: host or cells: human patients (liver), in vivo
Settings: mildly overweight individuals with type 2 diabetes; seven day treatment; versus placebo

T1 sequence (P28845 whole entry): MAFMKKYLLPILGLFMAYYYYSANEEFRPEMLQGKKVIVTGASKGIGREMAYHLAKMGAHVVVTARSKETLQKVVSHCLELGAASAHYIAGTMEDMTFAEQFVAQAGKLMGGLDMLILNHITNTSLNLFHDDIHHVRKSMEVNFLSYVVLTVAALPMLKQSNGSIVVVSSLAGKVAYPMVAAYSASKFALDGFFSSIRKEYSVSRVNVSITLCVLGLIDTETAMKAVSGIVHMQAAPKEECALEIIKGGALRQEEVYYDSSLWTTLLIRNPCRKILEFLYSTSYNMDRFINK

hepatic glucose production: decrease in hepatic glucose production
SMILES: CC1(C)[C@@H](OC(=O)CCC(=O)O)CC[C@]2(C)[C@H]3C(=O)C=C4[C@@H]5C[C@@](C)(C(=O)O)CC[C@]5(C)CC[C@@]4(C)[C@]3(C)CC[C@@H]12 [carbenoxolone]
